# Results as given in ChEMBL document CHEMBL1128115, “Synthesis and pharmacological activity of combretastatin analogues. Naphthylcombretastatins and related compounds” (Bioorg Med Chem Lett, 1995).
# How the values were obtained:
# Type in all cases: functional, cell-based
# [1] = system: HT-29; assay: Compound was tested for inhibition of cell growth of HT-29 cells; details: Homo sapiens
# [2] = system: P388; assay: Compound was tested for inhibition of cell growth of P-388 cells; details: Mus musculus
# [3] = Compound was tested for inhibition of cell growth of MEL-28 cells; details: Homo sapiens, SK-MEL-28
# [4] = system: A549; assay: Compound was tested for inhibition of cell growth of A-549 cells; details: Homo sapiens
# [5] = system: L1210; assay: Compound was tested for inhibition of cell growth of L1210 leukemia cells; details: Mus musculus
IC50 [1] [µM],IC50 [2] [µM],IC50 [4] [µM],IC50 [5] [µM],Structure (SMILES),IC50 [3] [µM]
> 28.9,> 28.9,> 28.9,–,COc1ccc(C(=O)Cc2cc(OC)c(OC)c(OC)c2)cc1OC,> 28.9
> 30,30,> 30,–,COc1cc(C(=O)Cc2cc(OC)c(OC)c(OC)c2)ccc1O,> 30
5.8,5.8,5.8,–,COc1cc(CC2(c3ccc4ccccc4c3)SCCCS2)cc(OC)c1OC,11.7
29.7,14.8,14.8,–,COc1cc(CC(=O)c2ccc3ccccc3c2)cc(OC)c1OC,14.8
0.3,0.3,0.3,–,COc1cc(CCc2ccc3ccccc3c2)cc(OC)c1OC,0.3

# Second part, the compound before the results:
Structure (SMILES),IC50 [1] [µM],IC50 [2] [µM],IC50 [4] [µM],IC50 [5] [µM],IC50 [3] [µM]
COc1cc(CCc2ccc3c(c2)OCO3)cc(OC)c1OC,6.3,6.3,6.3,–,6.3
COc1ccc(CCc2cc(OC)c(OC)c(OC)c2)cc1OC,15,15,15,–,15
COc1cc(CC2(c3ccc4c(c3)OCO4)SCCCS2)cc(OC)c1OC,5.9,5.9,5.9,–,4.7
Oc1ccc(CCc2ccc3c(c2)OCO3)cc1,> 41.2,41.2,> 41.2,–,> 41.2
c1ccc2cc(C3SCCCS3)ccc2c1,–,–,–,20,–
COc1ccc(C(O)Cc2cc(OC)c(OC)c(OC)c2)cc1OC (centres undefined),> 28.7,28.7,> 28.7,–,> 28.7
COc1ccc(C2(Cc3cc(OC)c(OC)c(OC)c3)SCCCS2)cc1OC,22.9,22.9,22.9,–,> 22.9
COc1cc([C@@H]2c3cc4c(cc3[C@H](O)[C@H]3COC(=O)[C@H]23)OCO4)cc(OC)c1OC [PODOFILOX],0.05,0.05,0.05,–,0.06
